Like-named read-outs stand apart in the source and are kept apart here.
Columns and labels:
Drosophila OR47a = target: T1, Drosophila OR47a (Drosophila melanogaster, UniProt P81921); experiment: Calcium ion fluorescence (GCaMP6) assay, OR47a stable HEK293 cell line; format: cell-based; conditions: for Average response / OR47a response (VUAA1-normalized) at 1 μM / OR47a response (VUAA1-normalized) at 10 μM / OR47a response (VUAA1-normalized) at 100 μM: OR47a cell line; for Average response: mean of biological replicates; for OR47a response (VUAA1-normalized) at 1 μM: VOC concentration 1 μM; for OR47a response (VUAA1-normalized) at 10 μM: VOC concentration 10 μM; for OR47a response (VUAA1-normalized) at 100 μM: VOC concentration 100 μM
T1 construct: expressed in transfected cells
T1 sequence (P81921 1-385): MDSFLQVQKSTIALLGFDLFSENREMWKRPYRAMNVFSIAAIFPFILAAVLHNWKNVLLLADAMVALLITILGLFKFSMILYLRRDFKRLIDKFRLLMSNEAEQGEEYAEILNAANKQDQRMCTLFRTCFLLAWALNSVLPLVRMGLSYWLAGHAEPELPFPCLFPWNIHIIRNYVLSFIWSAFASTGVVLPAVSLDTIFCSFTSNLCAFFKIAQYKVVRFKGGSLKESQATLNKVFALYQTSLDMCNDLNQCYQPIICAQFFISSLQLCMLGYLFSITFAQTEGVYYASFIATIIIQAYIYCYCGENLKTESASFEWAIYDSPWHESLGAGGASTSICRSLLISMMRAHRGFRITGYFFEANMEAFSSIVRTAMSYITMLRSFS
T1 sequence (Q9VNB5 1-486 partner): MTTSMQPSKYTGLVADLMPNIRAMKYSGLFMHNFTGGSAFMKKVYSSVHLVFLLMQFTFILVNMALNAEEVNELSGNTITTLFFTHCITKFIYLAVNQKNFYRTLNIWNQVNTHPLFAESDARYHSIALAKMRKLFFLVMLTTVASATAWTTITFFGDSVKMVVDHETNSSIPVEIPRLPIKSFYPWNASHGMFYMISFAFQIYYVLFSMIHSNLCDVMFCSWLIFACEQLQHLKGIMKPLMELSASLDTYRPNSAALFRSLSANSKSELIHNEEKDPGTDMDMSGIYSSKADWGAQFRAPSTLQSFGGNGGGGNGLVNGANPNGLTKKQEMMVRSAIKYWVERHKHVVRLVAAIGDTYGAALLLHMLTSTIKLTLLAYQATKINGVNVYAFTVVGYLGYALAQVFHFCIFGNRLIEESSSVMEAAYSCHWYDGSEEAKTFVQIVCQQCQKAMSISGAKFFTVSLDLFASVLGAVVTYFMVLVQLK
Method in brief: (§1)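 HEK293 lines stably expressing each Drosophila OR with GCaMP6, doxycycline-induced (1 μg/mL) 48 or 72 h. Fluorescence recorded 5 s baseline then 30 s after VOC injection at pH 7.3; ΔF=(FMAX−F0)/F0, normalized to 50 µM VUAA1 response per line, triplicate wells averaged; concentration series 0.01–100 μM.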

Drosophila OR10a = target: T2, Drosophila OR10a (Drosophila melanogaster, UniProt Q9VYZ1); experiment: Calcium ion fluorescence (GCaMP6) assay, OR10a stable HEK293 cell line; format: cell-based; conditions: for OR10a response (VUAA1-normalized) at 1 μM / OR10a response (VUAA1-normalized) at 10 μM / OR10a response (VUAA1-normalized) at 100 μM: OR10a cell line; for OR10a response (VUAA1-normalized) at 1 μM: VOC concentration 1 μM; for OR10a response (VUAA1-normalized) at 10 μM: VOC concentration 10 μM; for OR10a response (VUAA1-normalized) at 100 μM: VOC concentration 100 μM; for EC50: single-concentration estimate from 100 µM, plate 2019.12.05
T2 construct: expressed in transfected cells
T2 sequence (Q9VYZ1 1-406): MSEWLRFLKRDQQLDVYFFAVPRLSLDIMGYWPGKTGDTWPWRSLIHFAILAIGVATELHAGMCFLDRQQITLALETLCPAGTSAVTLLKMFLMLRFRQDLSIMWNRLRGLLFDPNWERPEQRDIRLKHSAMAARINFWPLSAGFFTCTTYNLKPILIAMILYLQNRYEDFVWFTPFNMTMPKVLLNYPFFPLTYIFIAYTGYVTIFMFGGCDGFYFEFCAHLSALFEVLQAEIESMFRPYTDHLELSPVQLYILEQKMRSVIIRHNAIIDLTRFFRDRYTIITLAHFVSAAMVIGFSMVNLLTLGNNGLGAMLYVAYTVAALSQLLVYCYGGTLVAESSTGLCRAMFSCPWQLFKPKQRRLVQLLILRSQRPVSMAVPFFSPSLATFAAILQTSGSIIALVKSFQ
T2 sequence (Q9VNB5 1-486 partner): T1 sequence (Q9VNB5 1-486 partner)
Method in brief: as §1

[1] = HEK293, read-out: OR47a response (VUAA1-normalized response)
[2] = concentration 1, normalized fluorescence change, values below 0.05 threshold given as 0
[3] = concentration 10, normalized fluorescence change, values below 0.05 threshold given as 0
[4] = concentration 100, normalized fluorescence change, values below 0.05 threshold given as 0
[5] = HEK293, 1 μM VOC, 50 μM VUAA1 = 1, responses not exceeding 0.05 considered 0, read-out: OR10a Average response (VUAA1-normalized)
[6] = HEK293, 10 μM VOC, 50 μM VUAA1 = 1, responses not exceeding 0.05 considered 0, read-out: OR10a Average response (VUAA1-normalized)
[7] = HEK293, 100 μM VOC, 50 μM VUAA1 = 1, responses not exceeding 0.05 considered 0, read-out: OR10a Average response (VUAA1-normalized)
[8] = HEK293, read-out: OR10a response (VUAA1-normalized response), VOC concentration 1 μM
[9] = HEK293, read-out: OR10a response (VUAA1-normalized response), VOC concentration 10 μM
[10] = HEK293, read-out: OR10a response (VUAA1-normalized response), VOC concentration 100 μM
[11] = HEK293, read-out: OR47a Average response (VUAA1-normalized)
[12] = ligand concentration 1 (unit not given), threshold 0.05, below shown as 0
[13] = ligand concentration 10 (unit not given), threshold 0.05, below shown as 0
[14] = ligand concentration 100 (unit not given), threshold 0.05, below shown as 0
[15] = HEK293, read-out: OR10a Average response (VUAA1-normalized), 1 μM VOC, 50 μM VUAA1 = 1, responses not exceeding 0.05 considered 0
[16] = HEK293, read-out: OR10a Average response (VUAA1-normalized), 10 μM VOC, 50 μM VUAA1 = 1, responses not exceeding 0.05 considered 0
[17] = HEK293, read-out: OR10a Average response (VUAA1-normalized), 100 μM VOC, 50 μM VUAA1 = 1, responses not exceeding 0.05 considered 0
[18] = 100 µM, OR10a clone G5, single plate 2019.12.05

Row | Compound | activation at 1 µM (Drosophila OR47a; [1]) [%] | activation at 10 µM (Drosophila OR47a; [1]) [%] | activation at 100 µM (Drosophila OR47a; [1]) [%] | Average response (Drosophila OR47a; odorant cc. 1 µM) | Average response (Drosophila OR47a; odorant cc. 10 µM) | Average response (Drosophila OR47a; odorant cc. 100 µM) | activation at 1 µM (Drosophila OR10a; [5]) [%] | activation at 10 µM (Drosophila OR10a; [6]) [%] | activation at 100 µM (Drosophila OR10a; [7]) [%] | activation at 1 µM (Drosophila OR10a; [8]) [%] | activation at 10 µM (Drosophila OR10a; [9]) [%] | activation at 100 µM (Drosophila OR10a; [10]) [%] | activation at 1 µM (Drosophila OR47a; [11]) [%] | activation at 10 µM (Drosophila OR47a; [11]) [%] | DF norm AVERAGE OR47a (Drosophila OR47a; [12]) | DF norm AVERAGE OR47a (Drosophila OR47a; [13]) | DF norm AVERAGE OR47a (Drosophila OR47a; [14]) | DF norm AVERAGE OR10a (Drosophila OR10a; [12]) | DF norm AVERAGE OR10a (Drosophila OR10a; [13]) | DF norm AVERAGE OR10a (Drosophila OR10a; [14]) | further results
1 | CCCCCO [1-pentanol] | 0 | 0 | 0 | 0.00 | 0.00 | 0.00 | 0 | 0 | 0 | 0 | 0 | 0 |  |  |  |  |  |  |  |  | DF norm AVERAGE OR47a (Drosophila OR47a; [2]): 0; DF norm AVERAGE OR47a (Drosophila OR47a; [3]): 0; DF norm AVERAGE OR47a (Drosophila OR47a; [4]): 0; DF norm AVERAGE OR10a (Drosophila OR10a): 0
2 | CCOC(=O)c1ccccc1 [ethyl benzoate] | 0 | 0 | 10 | 0.0468 | 0.00 | 0.10 |  |  |  | 29 | 45 | 49 | 5 | 0 | 0 | 0 | 0.09883 | 0.2908 | 0.4538 | 0.4934 | activation at 100 µM (Drosophila OR47a; [11]): 10%; activation at 1 µM (Drosophila OR10a; [15]): 29%; activation at 10 µM (Drosophila OR10a; [16]): 45%; activation at 100 µM (Drosophila OR10a; [17]): 49%
3 | C=CC(O)CCCCC (centres unmarked) [1-octen-3-ol] | 0 | 0 | 14 | 0.00 | 0.0268 | 0.14 | 0 | 2.34 | 4.52 | 0 | 0 | 0 | 0 | 3 |  |  |  |  |  |  | activation at 100 µM (Drosophila OR47a; [11]): 14%; DF norm AVERAGE OR47a (Drosophila OR47a; [2]): 0; DF norm AVERAGE OR47a (Drosophila OR47a; [3]): 0; DF norm AVERAGE OR47a (Drosophila OR47a; [4]): 0.1389; DF norm AVERAGE OR10a (Drosophila OR10a): 0
4 | Cc1ccc(C(C)C)cc1 [p-cymene] |  |  |  | 0.00 | 0.00 | 0.00 |  |  |  |  |  |  |  |  | 0 | 0 | 0 | 0 | 0 | 0 | OR47a response (VUAA1-normalized) at 1 μM (Drosophila OR47a): 0.00; OR47a response (VUAA1-normalized) at 10 μM (Drosophila OR47a): 0.00; OR47a response (VUAA1-normalized) at 100 μM (Drosophila OR47a): 0.00; activation at 1 µM (Drosophila OR10a; [15]): 0%; activation at 10 µM (Drosophila OR10a; [16]): 0%; activation at 100 µM (Drosophila OR10a; [17]): 0%; OR10a response (VUAA1-normalized) at 1 μM (Drosophila OR10a): 0.00; OR10a response (VUAA1-normalized) at 10 μM (Drosophila OR10a): 0.00; OR10a response (VUAA1-normalized) at 100 μM (Drosophila OR10a): 0.00
5 | CCCOC(C)=O [propyl acetate] |  |  |  | 0.00 | 0.09 | 0.33 | 0 | 9 | 0 |  |  |  | 0 | 9 | 0 | 0.0896 | 0.3345 | 0 | 0.08914 | 0 | activation at 100 µM (Drosophila OR47a; [11]): 33%; OR47a response (VUAA1-normalized) at 1 μM (Drosophila OR47a): 0.00; OR47a response (VUAA1-normalized) at 10 μM (Drosophila OR47a): 0.09; OR47a response (VUAA1-normalized) at 100 μM (Drosophila OR47a): 0.33; OR10a response (VUAA1-normalized) at 1 μM (Drosophila OR10a): 0.00; OR10a response (VUAA1-normalized) at 10 μM (Drosophila OR10a): 0.09; OR10a response (VUAA1-normalized) at 100 μM (Drosophila OR10a): 0.00
6 | COC(=O)c1ccccc1 [methyl benzoate] |  |  |  | 0.0138 | 0.00 | 0.06 | 31 | 64 | 67 |  |  |  |  |  | 0 | 0 | 0.05948 | 0.3063 | 0.6425 | 0.6719 | OR47a response (VUAA1-normalized) at 1 μM (Drosophila OR47a): 0.00; OR47a response (VUAA1-normalized) at 10 μM (Drosophila OR47a): 0.00; OR47a response (VUAA1-normalized) at 100 μM (Drosophila OR47a): 0.06; DF norm, all technical replicates (Drosophila OR10a; [18]): 0.8079; DF norm, outlier technical replicates removed (Drosophila OR10a; [18]): 0.8079; DF, outlier technical replicates removed (Drosophila OR10a; [18]): 1.408; DF, all technical replicates (Drosophila OR10a; 100 µM, OR10a clone G5, single plate 2019.12.05, xc+0.1%DMSO): 1.408; EC50 (Drosophila OR10a; EC50, all technical replicates, OR10a clone G5): 23.8 µM; EC50 (Drosophila OR10a; EC50, outlier technical replicates removed, OR10a clone G5): 23.8 µM; OR10a response (VUAA1-normalized) at 1 μM (Drosophila OR10a): 0.31; OR10a response (VUAA1-normalized) at 10 μM (Drosophila OR10a): 0.64; OR10a response (VUAA1-normalized) at 100 μM (Drosophila OR10a): 0.67

Source: PMC10709440, “High-throughput ligand profile characterization in novel cell lines expressing seven heterologous insect olfactory receptors for the detection of volatile plant biomarkers” (Scientific Reports, 2023)
